target: Rab7 GTPase wild-type (dog), GST fusion; test: Rab7 GTP binding inhibitors, analog potency, SAR follow-up, biochemical, oxadiazole analogs, multiplex bead flow cytometry (AID 2031); details: bead-based flow cytometry, Bodipy-FL-GTP binding; Ki calculated from EC50

Point of comparison: COc1ccc(-c2noc(CCC(=O)N3CCN(c4cccc(C)c4C)CC3)n2)cc1, Ki 0.1 µM. Against it:
- Cc1cccc(-c2noc(CCC(=O)N3CCN(c4cc(C)ccc4C)CC3)n2)c1 — within 1.5-fold, 0.07 µM
- COc1ccc(-c2noc(CCC(=O)N3CCN(c4ccccc4Cl)CC3)n2)cc1 — within 1.5-fold, 0.15 µM
- Cc1ccc(C)c(N2CCN(C(=O)CCc3nc(-c4ccc(Br)cc4)no3)CC2)c1 — the same, 0.1 µM
- COc1ccc(-c2noc(CCC(=O)N3CCN(c4ccccc4Br)CC3)n2)cc1 — within 1.5-fold, 0.15 µM
- Cc1ccc(C)c(N2CCN(C(=O)CCc3nc(-c4cccc(Br)c4)no3)CC2)c1 — 2.3-fold higher, 0.23 µM
- COc1ccc(-c2noc(CCC(=O)N3CCC(c4cc(C)ccc4C)CC3)n2)cc1 — within 1.5-fold, 0.09 µM
- COc1ccc(-c2noc(CCC(=O)N3CCN(c4ccccc4C(F)(F)F)CC3)n2)cc1 — within 1.5-fold, 0.13 µM
- COc1ccc(-c2noc(CCC(=O)N3CCN(c4cc(C)ccc4C)CC3)n2)cc1 — 1.6-fold higher, 0.16 µM
- COc1ccc(-c2noc(CCC(=O)N3CCN(c4cccc(Cl)c4)CC3)n2)cc1 — 20-fold higher, 2.03 µM
- Cc1ccc(C)c(N2CCN(C(=O)CCc3nc(-c4ccc(Cl)cc4)no3)CC2)c1 — 1.9-fold higher, 0.19 µM
- Cc1ccc(C)c(N2CCN(C(=O)CCc3nc(-c4cccc(F)c4)no3)CC2)c1 — 5.1-fold higher, 0.51 µM
- Cc1ccc(C)c(N2CCN(C(=O)CCc3nc(-c4cccc(C(F)(F)F)c4)no3)CC2)c1 — 2-fold lower, 0.05 µM
- COc1ccc(-c2noc(CCC(=O)N3CCN(c4ccccc4F)CC3)n2)cc1 — 2.5-fold lower, 0.04 µM
- COc1cccc(-c2noc(CCC(=O)N3CCN(c4cc(C)ccc4C)CC3)n2)c1 — 2.2-fold higher, 0.22 µM
- COc1ccc(-c2noc(CCCC(=O)N3CCN(c4cc(C)ccc4C)CC3)n2)cc1 — 9.4-fold higher, 0.94 µM
- Cc1ccc(C)c(N2CCN(C(=O)CCc3nc(-c4ccccc4Br)no3)CC2)c1 — 2.7-fold higher, 0.27 µM
- Cc1ccc(C)c(N2CCN(C(=O)CCc3nc(-c4ccccc4C)no3)CC2)c1 — 3.6-fold higher, 0.36 µM
- Cc1ccc(-c2noc(CCC(=O)N3CCN(c4cc(C)ccc4C)CC3)n2)cc1 — 2.9-fold higher, 0.29 µM
- Cc1ccc(C)c(N2CCN(C(=O)CCc3nc(-c4ccccc4)no3)CC2)c1 — within 1.5-fold, 0.08 µM
- Cc1ccc(C)c(N2CCN(C(=O)CCc3nc(-c4ccc(F)cc4)no3)CC2)c1 — 2.5-fold lower, 0.04 µM
- COc1ccc(-c2cc(CCC(=O)N3CCN(c4cc(C)ccc4C)CC3)on2)cc1 — 5-fold lower, 0.02 µM

Source: PubChem BioAssay AID2031 (NMMLSC, 2009)
